Patent publication US10112929B2, “Lactams as inhibitors of rock” (BRISTOL-MYERS SQUIBB COMPANY, priority 2015, dated 2018)
pIC50: −log10 of the molar value. Where two headings read alike, the source gives them in different places.

Legend:
[1] = system: porcine model of IL-1 beta-induced coronary stenosis; settings: long term treatment; cited from earlier work
rat stroke model = settings: in vivo; cited from earlier work
ROCK2 = ROCK2 (Homo sapiens (Human), UniProt O75116);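 note: rho kinase enzyme reaction halted with EDTA, phospho- and non-phospho peptide separated for read-out, kinase activity inhibition derived across a dose-response series, DMSO under 2%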
Chain of ROCK2 (O75116 whole entry, species assumed): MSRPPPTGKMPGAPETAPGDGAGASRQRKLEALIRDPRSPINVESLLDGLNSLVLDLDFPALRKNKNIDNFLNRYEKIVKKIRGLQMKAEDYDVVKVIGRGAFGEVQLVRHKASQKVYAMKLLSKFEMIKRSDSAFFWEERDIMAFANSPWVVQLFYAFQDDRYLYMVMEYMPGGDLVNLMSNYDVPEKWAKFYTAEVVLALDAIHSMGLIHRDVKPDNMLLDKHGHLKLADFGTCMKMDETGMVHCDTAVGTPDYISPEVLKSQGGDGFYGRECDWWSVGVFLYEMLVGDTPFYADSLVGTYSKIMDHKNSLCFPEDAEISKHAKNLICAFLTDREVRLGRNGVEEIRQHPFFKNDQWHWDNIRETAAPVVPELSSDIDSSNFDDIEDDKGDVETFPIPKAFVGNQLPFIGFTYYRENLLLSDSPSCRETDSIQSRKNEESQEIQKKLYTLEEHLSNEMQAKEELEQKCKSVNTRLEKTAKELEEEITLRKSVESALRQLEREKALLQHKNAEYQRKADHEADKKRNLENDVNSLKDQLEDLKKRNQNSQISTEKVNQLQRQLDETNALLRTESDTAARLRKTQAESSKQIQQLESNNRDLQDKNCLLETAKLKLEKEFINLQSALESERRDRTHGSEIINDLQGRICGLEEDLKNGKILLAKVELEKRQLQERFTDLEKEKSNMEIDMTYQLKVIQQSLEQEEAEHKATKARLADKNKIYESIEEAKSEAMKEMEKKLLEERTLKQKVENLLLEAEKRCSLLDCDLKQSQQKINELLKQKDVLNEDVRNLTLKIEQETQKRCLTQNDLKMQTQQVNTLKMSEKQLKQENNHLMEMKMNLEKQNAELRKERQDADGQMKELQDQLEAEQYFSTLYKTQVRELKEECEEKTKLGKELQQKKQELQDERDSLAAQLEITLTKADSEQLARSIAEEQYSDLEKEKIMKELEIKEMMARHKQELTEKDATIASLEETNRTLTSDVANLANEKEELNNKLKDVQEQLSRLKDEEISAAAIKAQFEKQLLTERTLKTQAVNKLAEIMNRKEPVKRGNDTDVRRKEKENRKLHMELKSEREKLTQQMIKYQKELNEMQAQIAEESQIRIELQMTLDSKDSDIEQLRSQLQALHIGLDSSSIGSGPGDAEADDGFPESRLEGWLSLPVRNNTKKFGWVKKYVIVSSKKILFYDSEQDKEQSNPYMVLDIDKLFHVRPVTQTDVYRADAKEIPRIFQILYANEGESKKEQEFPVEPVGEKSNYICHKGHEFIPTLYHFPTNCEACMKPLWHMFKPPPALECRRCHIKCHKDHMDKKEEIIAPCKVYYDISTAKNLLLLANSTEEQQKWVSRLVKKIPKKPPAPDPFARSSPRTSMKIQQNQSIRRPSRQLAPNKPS

[2] = system: spontaneously hypertensive rat, renal hypertensive rat and deoxycortisone acetate salt hypertensive rat models; settings: cited from earlier work
[3] = system: neointimal formation in rats; settings: cited from earlier work
Dahl salt-sensitive rats = settings: rat, in vivo; cited from earlier work

| Compound | pIC50 (ROCK2) | also measured |
| --- | --- | --- |
| O=S(=O)(c1cccc2cnccc12)N1CCCNCC1 [fasudil] | – | coronary constrictive remodeling [1]: promote a regression of coronary constrictive remodeling; coronary stenosis [1]: progressively reduce coronary stenosis; infarct size and neurologic deficit (rat stroke model): reduce both the infarct size and neurologic deficit |
| COc1ccc(NC2CCN(c3ccc(-c4cn[nH]c4)c(Cl)c3)C2=O)cc1F (single isomer, unassigned) [Example 157, 1-(3-chloro-4-(1H-pyrazol-4-yl)phenyl)-3 ((3-fluoro-4-methoxyphenyl)amino) pyrrolidin-2-one] | 5.66 to 7.00 | – |
| COc1cc(NC2CCN(c3ccc(-c4cn[nH]c4)cc3Cl)C2=O)ccc1F (single isomer, unassigned) [Example 163, 1-(2-chloro-4-(1H-pyrazol-4-yl)phenyl)-3-((4-fluoro-3-methoxyphenyl)amino) pyrrolidin-2-one] | 5.66 to 7.00 | – |
| COc1cc(F)cc(NC2CCN(c3ncc(-c4cn[nH]c4)cc3F)C2=O)c1 (single isomer, unassigned) [Example 360, 1-(3-fluoro-5-(1H-pyrazol-4-yl)pyridin-2-yl)-3-((3-fluoro-5-methoxyphenyl)amino) pyrrolidin-2-one] | 5.66 to 7.00 | – |
| Cc1nc(N2CCC(Nc3cccc(OCC4CC4)c3)C2=O)ccc1-c1cn[nH]c1 (single isomer, unassigned) [Example 191, 3-((3-(cyclopropylmethoxy)phenyl)amino)-1-(6-methyl-5-(1H-pyrazol-4-yl)pyridin-2-yl)pyrrolidin-2-one] | 7.00 to 8.00 | – |
| COc1ccc(F)c(NC2CCN(c3ccc(-c4cn[nH]c4)c(F)c3)C2=O)c1 (single isomer, unassigned) [Example 335, 1-(3-fluoro-4-(1H-pyrazol-4-yl)phenyl)-3-((2-fluoro-5-methoxyphenyl)amino) pyrrolidin-2-one] | 7.00 to 8.00 | – |
| O=C1C(Nc2ccc3c(c2)OC(F)(F)O3)CCN1c1ccc(-c2cn[nH]c2)cc1 (single isomer, unassigned) [Example 54, 1-(4-(1H-pyrazol-4-yl)phenyl)-3-((2,2-difluorobenzo[d][1,3]dioxol-5-yl)amino)pyrrolidin-2-one] | 5.66 to 7.00 | – |
| COc1cc(NC2CCN(c3ccc(-c4cn[nH]c4)c(OC(F)F)c3)C2=O)ccc1F (single isomer, unassigned) [Example 107, 1-[3-(difluoromethoxy)-4-(1H-pyrazol-4-yl)phenyl]-3-[(4-fluoro-3-methoxyphenyl)amino]pyrrolidin-2-one] | 7.00 to 8.00 | – |
| COc1ccc(F)c(NC2CCN(c3ccc(-c4cn[nH]c4)c(OC)c3)C2=O)c1 (single isomer, unassigned) [Example 149, 3-((2-fluoro-5-methoxyphenyl)amino)-1-(3-methoxy-4-(1H-pyrazol-4-yl)phenyl) pyrrolidin-2-one] | 7.00 to 8.00 | – |
| C[C@@H](N)[C@H]1CC[C@H](C(=O)Nc2ccncc2)CC1 [Example Y-27632] | – | blood pressure ([2]; control rats): only a minor effect on blood pressure; blood pressure ([2]; three rat models of hypertension): significantly decrease blood pressure; neointimal formation [3]: inhibited neointimal formation; ventricular hypertrophy, fibrosis and function (Dahl salt-sensitive rats): improve ventricular hypertrophy, fibrosis and function |

The next lines start with results.

| pIC50 (ROCK2) | Compound | also measured |
| --- | --- | --- |
| > 8.00 | COc1cccc(NC2CCN(c3ccc(-c4cn[nH]c4)c(OC)c3)C2=O)c1 (single isomer, unassigned) [Example 75, 1-(3-methoxy-4-(1H-pyrazol-4-yl)phenyl)-3-((3-methoxyphenyl)amino)pyrrolidin-2-one] | – |
| 7.00 to 8.00 | COc1cc(NC2CCN(c3ccc(-c4cn[nH]c4)nc3)C2=O)ccc1F (single isomer, unassigned) [Example 300, 1-(6-(1H-pyrazol-4-yl)pyridin-3-yl)-3-((4-fluoro-3-methoxyphenyl)amino)pyrrolidin-2-one] | – |
| 7.00 to 8.00 | COc1cc(NC2CCN(c3ccc(-c4cn[nH]c4)c(F)c3F)C2=O)ccc1F (single isomer, unassigned) [Example 308, 1-(2,3-difluoro-4-(1H-pyrazol-4-yl)phenyl)-3-((4-fluoro-3-methoxyphenyl)amino)pyrrolidin-2-one] | – |
| 7.00 to 8.00 | COc1cc(F)cc(NC2CCN(c3ccc(-c4cn[nH]c4)cc3F)C2=O)c1 (single isomer, unassigned) [Example 339, 1-(2-fluoro-4-(1H-pyrazol-4-yl)phenyl)-3-((3-fluoro-5-methoxyphenyl)amino) pyrrolidin-2-one] | – |
| > 8.00 | COc1cccc(NC2CCN(c3ccc(-c4cn[nH]c4)c(F)c3)C2=O)c1 (single isomer, unassigned) [Example 46, 1-(3-fluoro-4-(1H-pyrazol-4-yl)phenyl)-3-((3-methoxyphenyl)amino)pyrrolidin-2-one] | – |
| > 8.00 | COc1cc(F)cc(NC2CCN(c3ccc(-c4cn[nH]c4)c(F)c3)C2=O)c1 (single isomer, unassigned) [Example 50, 1-(3-fluoro-4-(1 H-pyrazol-4-yl)phenyl)-3-((3-fluoro-5-methoxyphenyl)amino)pyrrolidin-2-one] | – |
| > 8.00 | COc1cccc(NC2CCN(c3cc(F)c(-c4cn[nH]c4)c(F)c3)C2=O)c1 (single isomer, unassigned) [Example 312, 1-(3,5-difluoro-4-(1H-pyrazol-4-yl)phenyl)-3-((3-methoxyphenyl)amino)pyrrolidin-2-one] | – |
